From ChEMBL document CHEMBL3507680, “University of Dundee, Gates Library screen for HepG2 cell viability”

assay: Human HepG2 cell viability assay in 384 well format; type: toxicity, cell-based; set-up: dose 125 nL, time 70.5 hour; concentration not given beside the values; settings: HepG2 cells, read-out: Inhibition

| SMILES | cytotoxicity at 70.5 h |
| --- | --- |
| Cc1nnc2n1CCN(C(=O)c1cnc(C3CC3)s1)C2 | -2.96% |
| O=C(NCc1ccc(-n2cncn2)nc1)c1cnccn1 | 7.67% |
| CCN(C(=O)CCn1cccn1)C1CC1 | -5.79% |
| Cn1c(CO)nnc1SCc1c(F)cccc1Br | -5.69% |
| O=C(CCC1CCCO1)NCCCC(=O)Nc1ccc(Cl)cc1 (stereo not drawn) | -12% |
| CCn1cc(NC(=O)C(C)n2ncc(Cl)c2C)c(C(=O)NC)n1 (stereo not drawn) | -3.34% |
| Cc1ncsc1CCN(C)C(=O)c1ccc(Cn2cnnn2)cc1 | 3.1% |
| CCn1c(C2CCCN(Cc3cc(OC)cc(OC)c3)C2)nn(C)c1=O (stereo not drawn) | -4.68% |
| Cc1c[nH]nc1C1CCCCN1C(=O)CCn1nccc1C (stereo not drawn) | 11.5% |
| O=C(CCOCC(F)(F)F)N1CCCC1c1noc(C2CC2)n1 (stereo not drawn) | -8.98% |
| CCn1c(C)nnc1CN(C)C1CCN(CCn2cccn2)C1 (stereo not drawn) | 7.42% |
| Cn1nc(C(=O)N2CCCCCC2)cc1NC(=O)c1ccccc1 | -9.93% |
| Cc1nc(C2CCCN(C(=O)c3cnn(C(C)(C)C)c3)C2)no1 (stereo not drawn) | 23.3% |
| O=C(c1cc(F)cc(F)c1)N1CCC2(CC1)CC2 | -9.31% |
| NC(=O)C1CN(c2ccc(F)cc2)CCN1 (stereo not drawn) | -2.98% |
| COc1cccc2c1OCCCN(Cc1c[nH]nc1C(=O)O)C2 | -9% |
| CCn1cnnc1CNC(=O)N(C)Cc1c(F)cccc1Cl | -8.68% |
| Cc1ncccc1C(=O)NCC(C)Oc1ccc(F)cc1 (stereo not drawn) | 24.4% |
| CSc1nc(N)cc(N2C[C@@H]3CC[C@H](C2)N(CC2CC2)C3=O)n1 | 3.27% |
| CC(C)NC(=O)NC(=O)C(C)N1CCN(C2CCN(C(C)C)CC2)CC1 (stereo not drawn) | -3.33% |

| SMILES | cytotoxicity at 70.5 h |
| --- | --- |
| Cn1cnc(S(=O)(=O)N2CCSC3(CCCCC3)C2)c1 | 4.34% |
| Cn1cnnc1C1CCN(c2nc3ccccc3o2)CC1 | -5.83% |
| c1cc(CNCC2CNc3ccnn3C2)cc(OC2CCCCC2)n1 (stereo not drawn) | -7.62% |
| CN(CCN1CCOC1=O)CC(=O)Nc1cc(F)cc(F)c1 | -19.7% |
| COC(=O)c1ccc(CN(C(C)C)C(C)C)o1 | -2.95% |
| CCCN(CC(=O)NC)C(=O)c1ccc(-c2ccsc2)nc1C | -4.88% |
| CC(C)C(=O)N1CCCc2c(cnn2-c2ccccc2)C1 | -5.24% |
| Cc1ccc(NC(=O)N2CCN(C(=O)CC3CCCC3)CC2)s1 | -10.2% |
| Cc1ccc(-n2c(SCC(=O)O)nnc2-c2cccc(C)c2)cc1 | -7.34% |
| O=C(C1CCOC1)N1CCC2(CC1)CN(Cc1nccs1)CCO2 (stereo not drawn) | -2.99% |
| CS(=O)(=O)NCc1cnc2n1CCN(Cc1ccsc1)CC2 | 8.08% |
| NC(=O)C1CCN(C(=O)Cc2cnc(-c3c(Cl)cccc3Cl)s2)CC1 | -13.5% |
| CCOC[C@]12COC[C@H]1CN(Cc1cccc(OC)c1)C2 | -5.95% |
| CC(C)CN1C(=O)C[C@@H]2[C@@H]1CCN2Cc1cccc(C#N)c1 | 2.48% |
| Cc1ccc(CN(CCCn2ccnc2)Cc2cc(F)ccc2F)s1 | 20.3% |
| COc1ccc(C(=O)C2CCCN(Cc3ccncc3)C2)c(OC)c1 (stereo not drawn) | -9.3% |
| OC[C@H]1CN(C2Cc3ccccc3C2)C[C@H]1CN1CCC(O)CC1 | -7.74% |
| c1coc(-c2nc(CNC3CCCNC3)no2)c1 (stereo not drawn) | 1.79% |
| c1cc2c(cc1Cn1cc(C3CCOC3)nn1)OCO2 (stereo not drawn) | -16.1% |
| CCn1c(-c2ccccc2)nn(CC(=O)NCCc2c[nH]cn2)c1=O | 28.4% |

| SMILES | cytotoxicity at 70.5 h |
| --- | --- |
| N#CCSCCCN1CCCC(C(=O)N2CCCCCC2)C1 (stereo not drawn) | -4.07% |
| Cc1cc(C2CCCN2C(=O)c2cc3c(s2)CCC3)on1 (stereo not drawn) | -16.3% |
| CCn1cc(CNC(=O)C(C)C)cn1 | 0.0963% |
| CC(=O)Nc1cc(F)c(S(=O)(=O)N(C)CC2CCC2)c(F)c1 | -0.0857% |
| FC(F)Oc1ccccc1CN1CCCC(c2nccn2CC2CC2)C1 (stereo not drawn) | -1.02% |
| CC(C)(C)n1ncc2c(=O)[nH]c(NC3CC=CC3)nc21 | 0.3% |
| CN(C)CCNc1ccc(-c2nc(-c3ccccc3F)no2)cn1 | 0.837% |
| Cn1ccnc1CN1CCN(Cc2noc(-c3ccccc3)n2)CC1 | -4.14% |
| CN1CC2(CCCN(C(=O)Cc3cccc(O)c3)C2)OC1=O (stereo not drawn) | -6.74% |
| Cc1nc(CN2CCN(C(=O)Cc3cccc(Cl)c3)CC2)no1 | -5.05% |
| O=C1CC(c2cccnc2)c2c(c(C(=O)O)cn2-c2cccc(F)c2)N1 (stereo not drawn) | -8.96% |
| COCC1CCN(S(=O)(=O)N2C[C@@H](C)[C@@](C)(O)C2)CC1 | -0.99% |
| O=C(NS(=O)(=O)Cc1cc(-c2ccccc2)no1)C1CCOCC1 | -1.22% |
| CCN(CC1CCCO1)C(=O)CSCC(=O)Nc1ccc(C)cc1 (stereo not drawn) | -1.48% |
| CC(C)(C)C(=O)N1CCN(Cn2nccc2-c2cccnc2)CC1 | -3.16% |
| CN1CCNC(Cc2ccc(-c3ccncc3)cc2)C1=O (stereo not drawn) | -5.04% |
| CN(C)S(=O)(=O)N1CCC(c2ccncc2)CC1 | -10.2% |
| CCS(=O)(=O)N1CCC(c2nnc(C3CC3)o2)CC1 | 3.63% |
